A word on the inhibition: it is the relative decrease from the control value, in per cent. Read a low inhibition as a response near the control. A word on the IC50: it is the concentration that inhibits the measured activity by half. A high value points to weaker potency.

Among the data in paper PMC10265916, “Elraglusib (formerly 9-ING-41) possesses potent anti-lymphoma properties which cannot be attributed to GSK3 inhibition” (Cell Communication and Signaling : CCS, 2023) are inhibition and IC50 values, retold here.

Bounds are passed on as bounds.

What all share (type): biochemical
Test [1] addresses T1, MST2 (serine/threonine-protein kinase 3, STK3) (Homo sapiens, UniProt Q13188).
T1 sequence (Q13188 1-491): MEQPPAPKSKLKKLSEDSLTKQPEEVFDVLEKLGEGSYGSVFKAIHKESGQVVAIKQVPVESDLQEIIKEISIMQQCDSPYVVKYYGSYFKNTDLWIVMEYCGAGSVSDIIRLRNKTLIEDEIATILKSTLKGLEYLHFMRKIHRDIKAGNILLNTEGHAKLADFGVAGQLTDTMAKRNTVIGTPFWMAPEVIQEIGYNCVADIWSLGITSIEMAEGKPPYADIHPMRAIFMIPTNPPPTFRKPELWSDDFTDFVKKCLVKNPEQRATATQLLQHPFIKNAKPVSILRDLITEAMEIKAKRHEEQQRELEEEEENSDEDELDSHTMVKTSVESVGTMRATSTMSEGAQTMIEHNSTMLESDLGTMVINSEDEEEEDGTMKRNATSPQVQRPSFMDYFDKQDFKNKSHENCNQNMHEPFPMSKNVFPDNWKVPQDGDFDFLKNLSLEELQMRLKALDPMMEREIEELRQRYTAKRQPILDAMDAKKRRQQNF
Briefly: […] cell-free kinase screen, […] inhibition at […].

In test [2] the target is PIM1 (proto-oncogene serine/threonine-protein kinase 1) (Homo sapiens, UniProt P11309). Briefly: […] cell-free kinase screen, […] inhibition at […].
The target of test [3] is PIM3 (proto-oncogene serine/threonine-protein kinase 3) (Homo sapiens, UniProt Q86V86). Briefly: […] cell-free kinase screen, […] inhibition at […].
The next test deals with T2, GSK3β (Homo sapiens, UniProt P49841).
T2 construct: gene GSK3B
Kind of test: in vitro GSK3β kinase assay (IC50) and […] cell-free kinase screen.

Sequence of PIM1 (proto-oncogene serine/threonine-protein kinase 1) (P11309 whole entry): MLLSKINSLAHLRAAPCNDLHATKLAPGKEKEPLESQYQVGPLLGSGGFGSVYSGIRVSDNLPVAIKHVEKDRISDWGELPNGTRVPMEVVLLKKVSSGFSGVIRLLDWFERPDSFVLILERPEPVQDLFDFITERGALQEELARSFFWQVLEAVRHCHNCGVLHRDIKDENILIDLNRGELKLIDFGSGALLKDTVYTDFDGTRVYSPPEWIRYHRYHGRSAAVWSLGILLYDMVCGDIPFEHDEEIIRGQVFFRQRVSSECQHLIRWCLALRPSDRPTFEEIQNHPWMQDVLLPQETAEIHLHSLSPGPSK
T2 sequence (P49841 whole entry): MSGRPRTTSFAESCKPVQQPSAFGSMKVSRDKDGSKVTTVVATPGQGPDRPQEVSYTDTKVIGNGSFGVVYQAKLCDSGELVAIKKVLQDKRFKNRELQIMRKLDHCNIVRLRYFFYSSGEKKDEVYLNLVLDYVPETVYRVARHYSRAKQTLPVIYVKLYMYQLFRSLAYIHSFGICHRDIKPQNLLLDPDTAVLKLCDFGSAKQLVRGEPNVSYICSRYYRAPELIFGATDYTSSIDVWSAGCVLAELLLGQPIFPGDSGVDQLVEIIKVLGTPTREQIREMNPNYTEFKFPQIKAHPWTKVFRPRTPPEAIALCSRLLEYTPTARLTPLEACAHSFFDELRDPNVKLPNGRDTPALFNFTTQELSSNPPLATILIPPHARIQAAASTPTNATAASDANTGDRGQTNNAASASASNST

As to `Cn1cc(C2=C(c3coc4ccc(F)cc34)C(=O)NC2=O)c2cc3c(cc21)OCO3` [elraglusib], the inhibition at 5 µM in test [1], in test [2] and in test [3] was greater than 50% in each case. Moreover, at GSK3β, the IC50 worked out at 370 nM.
